Publication PMC9452538, “The antimicrobial peptide LI14 combats multidrug-resistant bacterial infections” (Communications Biology, 2022)
Ends that are not written are not given here.

What was measured:
[1] = system: MDR E. coli B2; experiment: Checkerboard assay with LI14; type: cell-based, Escherichia coli; details: for FIC index: antibiotic in combination with LI14, checkerboard 8 × 8, 18 h, ≤0.5 = synergy; for MICa of antibiotic: in the absence of LI14; for MICb of antibiotic: in the presence of ¼ MIC of LI14; for Potentiation: antibiotic potentiation in the presence of ¼ MIC of LI14
Experimental: (§1) Through checkerboard assay using two-fold serially diluted drugs (8 × 8 matrix), we evaluated the synergistic effects of LI14 with different mechanisms of antibiotics. The absorbance of cultures at 600 nm was determined by a Microplate reader after 18 h of incubation with (1.5 × 10^6 CFUs/mL) bacterial suspension. The FIC index (FICI) was calculated by performing two biological replicates for each combination. The formula is as follows: FIC index = FICIa + FICIb = MICab/MICa + MICba/Mb. An FIC index of ≤0.5 indicates synergy.
(§2) a/bMICs of antibiotics in the absence or presence of ¼ MIC of LI14.
(§3) cDegree of antibiotics potentiation in the presence of ¼ MIC of LI14.
(§4) –, none of potentiation activity.

[2] = system: MRSA T144; experiment: Checkerboard assay with LI14; type: cell-based, Staphylococcus aureus; details: for FIC index: antibiotic in combination with LI14, checkerboard; for MICa of antibiotic: in the absence of LI14; for MICb of antibiotic / Potentiation: in the presence of ¼ MIC of LI14
Experimental: as §1, §2, §3, §4

[3] = system: MRSA T144; experiment: Neutropenic mouse thigh infection model; type: in vivo, CD-1 mice; details: AMP 20 mg/kg i.p., 48 h
Experimental: Female CD-1 mice (n = 6 biologically independent animals per group) were first given cyclophosphamide (two consecutive injections of 150 and 100 mg kg^−1 at 4 and 1 day before infection) to construct neutropenia models. The mice’s right thighs were then injected with 100 μL MRSA T144 or E. coli B2 suspensions (10^5 CFUs per mouse). Post-infection of 1 h, 100 μL LI14 peptide (10 or 20 mg/kg), ampicillin/rifampicin (20 mg/kg) or a combination of LI14 with ampicillin/ rifampicin (10 + 20 mg/kg) were given by intraperitoneal injection. All mice were euthanized 48 h after drug administration, and right thigh muscle tissue was removed aseptically, homogenized, serially diluted, and plated on MHA to qualify bacterial loads after overnight incubation at 37 °C.

[4] = system: sensitive E. coli ATCC 25922; experiment: Checkerboard assay with LI14; type: cell-based, Escherichia coli; details: for FIC index: antibiotic in combination with LI14, checkerboard; for MICa of antibiotic: in the absence of LI14; for MICb of antibiotic / Potentiation: in the presence of ¼ MIC of LI14
Experimental: as §1, §2, §3, §4

[5] = system: MRSA T144; experiment: microbe, parasite or virus in culture; type: cell-based, Staphylococcus aureus; set-up: Antibacterial activity of LI14 derivates: unit not given here; details: MRSA T144; unit not given
Experimental: (§5) An antimicrobial activity study was conducted on all peptides against a panel of laboratory bacteria, including ATCC source and clinical isolates with resistance determinants. According to CLSI2021 guidelines, we tested the minimum inhibitory concentrations (MICs) of peptides using standard broth micro-dilutions. Briefly, bacteria grown to exponential phase were diluted in 1:1000 to MHB, subsequently, equivalent amounts of bacterial suspension (1.5 × 10^6 CFUs/mL) were mixed with different concentrations of peptides in a sterilized 96-well microtiter plate (Corning).

[6] = system: S. aureus ATCC 29213; experiment: microbe, parasite or virus in culture; type: cell-based, Staphylococcus aureus; set-up: Antibacterial activity of LI14 derivates: unit not given here; details: S. aureus 29213; unit not given
Experimental: as §5

[7] = system: E. coli ATCC 25922; experiment: microbe, parasite or virus in culture; type: cell-based, Escherichia coli; set-up: Antibacterial activity of LI14 derivates: unit not given here; details: E. coli 25922; unit not given
Experimental: as §5

[8] = system: E. coli B2 (blaNDM-5 + mcr-1); experiment: microbe, parasite or virus in culture; type: cell-based, Escherichia coli; set-up: Antibacterial activity of LI14 derivates: unit not given here; details: E. coli B2; unit not given
Experimental: as §5

Compound	Antibacterial activity of LI14 derivates [5]	Antibacterial activity of LI14 derivates [6]	Antibacterial activity of LI14 derivates [7]	Antibacterial activity of LI14 derivates [8]	also measured
CC1(C)S[C@@H]2[C@H](NC(=O)[C@H](N)c3ccccc3)C(=O)N2[C@H]1C(=O)O [Ampicillin]					FIC index [1]: 2; MICa of antibiotic [1]: > 128 µg/mL; MICb of antibiotic [1]: > 128 µg/mL; FIC index [2]: 0.078; MICa of antibiotic [2]: 64 µg/mL; MICb of antibiotic [2]: 1 µg/mL; Potentiation [2]: 64 fold; Bacterial load in thigh ([3]; animal 1): 7.62 Log10CFUs/thigh; Bacterial load in thigh ([3]; animal 2): 7.65 Log10CFUs/thigh; Bacterial load in thigh ([3]; animal 3): 8.00 Log10CFUs/thigh; Bacterial load in thigh ([3]; animal 4): 8.03 Log10CFUs/thigh; Bacterial load in thigh ([3]; animal 5): 7.34 Log10CFUs/thigh; Bacterial load in thigh ([3]; animal 6): 7.15 Log10CFUs/thigh
C[C@H]1c2cccc(O)c2C(=O)C2=C(O)[C@]3(O)C(=O)C(C(N)=O)=C(O)[C@@H](N(C)C)[C@@H]3[C@@H](O)[C@@H]21 [Doxycycline]					FIC index [1]: 0.25; Potentiation [1]: 8 fold; MICa of antibiotic [1]: 32 µg/mL; MICb of antibiotic [1]: 4 µg/mL; FIC index [4]: 0.25; MICa of antibiotic [4]: 0.5 µg/mL; MICb of antibiotic [4]: 0.063 µg/mL; Potentiation [4]: 8 fold; FIC index [2]: 0.188; MICa of antibiotic [2]: 16 µg/mL; MICb of antibiotic [2]: 1 µg/mL; Potentiation [2]: 16 fold
CN[C@H](CC(C)C)C(=O)N[C@H]1C(=O)N[C@@H](CC(N)=O)C(=O)N[C@H]2C(=O)N[C@H]3C(=O)N[C@H](C(=O)N[C@H](C(=O)O)c4cc(O)cc(O)c4-c4cc3ccc4O)[C@H](O)c3ccc(c(Cl)c3)Oc3cc2cc(c3O[C@@H]2O[C@H](CO)[C@@H](O)[C@H](O)[C@H]2O[C@H]2C[C@](C)(N)[C@H](O)[C@H](C)O2)Oc2ccc(cc2Cl)[C@H]1O [Vancomycin]					FIC index [1]: 0.078; Potentiation [1]: 64 fold; MICa of antibiotic [1]: 128 µg/mL; MICb of antibiotic [1]: 2 µg/mL; FIC index [4]: 0.375; MICa of antibiotic [4]: 64 µg/mL; MICb of antibiotic [4]: 8 µg/mL; Potentiation [4]: 8 fold; FIC index [2]: 2.0; MICa of antibiotic [2]: 0.5 µg/mL; MICb of antibiotic [2]: 0.5 µg/mL
AKKLCRILKKLCRI-NH2 [LI14-A1, Ala substitute of LI14, position 1]	64	16	16	4	
LAKLCRILKKLCRI-NH2 [LI14-A2, Ala substitute of LI14, position 2]	16	8	8	4	
LKALCRILKKLCRI-NH2 [LI14-A3, Ala substitute of LI14, position 3]	8	8-16	16	8	
LKKACRILKKLCRI-NH2 [LI14-A4, Ala substitute of LI14, position 4]	64	64	16-32	8	
LKKLARILKKLCRI-NH2 [LI14-A5]	16	16	4	4	
LKKLCAILKKLCRI-NH2 [LI14-A6, Ala substitute of LI14, Arg at position 6]	> 128	> 128	128	32	
LKKLCRALKKLCRI-NH2 [LI14-A7, Ala substitute of LI14, position 7]	64	64	32	16	
LKKLCRIAKKLCRI-NH2 [LI14-A8, Ala substitute of LI14, position 8]	64	128	16	8	
LKKLCRILAKLCRI-NH2 [LI14-A9, Ala substitute of LI14, position 9]	16	16	8-16	4	
LKKLCRILKALCRI-NH2 [LI14-A10, Ala substitute of LI14, position 10]	16	16-32	16-32	8	
LKKLCRILKKACRI-NH2 [LI14-A11, Ala substitute of LI14, position 11]	64	64	16	8	
LKKLCRILKKLARI-NH2 [LI14-A12]	16	8	2	4	
LKKLCRILKKLCAI-NH2 [LI14-A13, Ala substitute of LI14, position 13]	16	16	8	4	
LKKLCRILKKLCRA-NH2 [LI14-A14, Ala substitute of LI14, position 14]	32	16	16	4	
